Laboratory results: the supplement of paper PMC10307832

Legend:
Assay in all cases: relative viability (nuclei count vs DMSO), 5 days (fraction); higher = more cells survive
[1] = compound: COc1cc(Nc2c(C#N)cnc3cc(OCCCN4CCN(C)CC4)c(OC)cc23)c(Cl)cc1Cl [Bosutinib] + Nc1nc2[nH]cc(CCc3ccc(C(=O)N[C@@H](CCC(=O)O)C(=O)O)cc3)c2c(=O)[nH]1 [Pemetrexed] (partner 0.2 µM)
Summary of the method: (§1)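 Medians of duplicate plates are given as relative viability. That measure is the nuclei count in treated wells divided by the count in vehicle wells. Counts were taken on 4× images of lung cancer cell lines in 1536-well plates, 5 days after pin-tool dosing the day after seeding with one drug alone or a fixed anchor-drug dose plus five library-drug doses (not always all listed) in √10 steps.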

[2] = compound: COc1cc(Nc2c(C#N)cnc3cc(OCCCN4CCN(C)CC4)c(OC)cc23)c(Cl)cc1Cl [Bosutinib] + Nc1ncn([C@H]2C[C@H](O)[C@@H](CO)O2)c(=O)n1 [Decitabine] (partner 2 µM)
Summary of the method: as §1

[3] = compound: COc1cc(Nc2c(C#N)cnc3cc(OCCCN4CCN(C)CC4)c(OC)cc23)c(Cl)cc1Cl [Bosutinib] + O=C(c1cc(Cc2n[nH]c(=O)c3ccccc23)ccc1F)N1CCN(C(=O)C2CC2)CC1 [Olaparib] (partner 8 µM)
Summary of the method: as §1

[4] = compound: COc1cc(Nc2c(C#N)cnc3cc(OCCCN4CCN(C)CC4)c(OC)cc23)c(Cl)cc1Cl [Bosutinib] + O=C(CCCCCCC(=O)Nc1ccccc1)NO [Vorinostat] (partner 1 µM)
Summary of the method: as §1

[5] = compound: COc1cc(Nc2c(C#N)cnc3cc(OCCCN4CCN(C)CC4)c(OC)cc23)c(Cl)cc1Cl [Bosutinib] + Cc1nc(NC(=O)N2CCC[C@H]2C(N)=O)sc1-c1ccnc(C(C)(C)C(F)(F)F)c1 [Alpelisib] (partner 2 µM)
Summary of the method: as §1

Cell Line | relative viability ([1]; first compound 0.01 µM) | relative viability ([1]; first compound 0.03162 µM) | relative viability ([1]; first compound 0.1 µM) | relative viability ([1]; first compound 1 µM) | relative viability ([2]; first compound 0.01 µM) | relative viability ([2]; first compound 0.03162 µM) | relative viability ([2]; first compound 0.1 µM) | relative viability ([2]; first compound 1 µM) | relative viability ([3]; first compound 0.01 µM) | relative viability ([3]; first compound 0.03162 µM) | relative viability ([3]; first compound 0.1 µM) | relative viability ([3]; first compound 1 µM) | relative viability ([4]; first compound 0.01 µM) | relative viability ([4]; first compound 0.03162 µM) | relative viability ([4]; first compound 0.1 µM) | relative viability ([4]; first compound 1 µM) | relative viability ([5]; first compound 0.01 µM) | relative viability ([5]; first compound 0.03162 µM) | relative viability ([5]; first compound 0.1 µM) | relative viability ([5]; first compound 1 µM)
NCI-H647 | 0.221 | 0.179 | 0.162 | 0.171 | 0.442 | 0.36 | 0.302 | 0.386 | 0.6 | 0.474 | 0.481 | 0.287 | 0.584 | 0.568 | 0.667 | 0.642 | 1.34 | 1.33 | 1.03 | 0.543
NCI-H2009 | 0.944 | 1.06 | 1.17 | 0.946 | 0.365 | 0.468 | 0.345 | 0.36 | 0.708 | 0.709 | 0.696 | 0.575 | 0.78 | 0.809 | 0.758 | 0.562 | 1.2 | 1.15 | 1.1 | 0.767
EPLC-272H | 0.324 | 0.382 | 0.323 | 0.319 | 0.358 | 0.383 | 0.418 | 0.321 | 0.722 | 0.909 | 0.626 | 0.515 | 0.601 | 0.464 | 0.477 | 0.321 | 0.937 | 1.15 | 1.03 | 0.854
NCI-H520 | 0.661 | 0.666 | 0.627 | 0.605 | 0.465 | 0.47 | 0.533 | 0.409 | 0.358 | 0.379 | 0.352 | 0.298 | 0.729 | 0.735 | 0.724 | 0.708 | 0.96 | 0.786 | 0.968 | 0.66
NCI-H2405 | 1.14 | 1.08 | 1.06 | 0.824 | 0.749 | 0.775 | 0.757 | 0.57 | 0.978 | 0.887 | 0.902 | 0.691 | 1.04 | 1.33 | 1.39 | 0.766 | 0.886 | 0.759 | 0.837 | 0.365
NCI-H2085 | 0.869 | 0.863 | 0.87 | 0.736 | 0.553 | 0.564 | 0.543 | 0.606 | 0.717 | 0.72 | 0.709 | 0.89 | 0.866 | 0.769 | 0.788 | 0.705 | 0.978 | 0.976 | 0.903 | 0.988
NCI-H322M | 0.579 | 0.594 | 0.6 | 0.521 | 0.635 | 0.735 | 0.616 | 0.493 | 0.762 | 0.758 | 0.741 | 0.492 | 0.751 | 0.856 | 0.857 | 0.54 | 0.665 | 0.741 | 0.717 | 0.81
